Test results reported in PubChem BioAssay AID1189 (EPA DSSTox, 2008).
Activity calls are given as the source filed them.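 Rule for the calls: active = a tumor-causing dose value with its tumor site reported for any sex and species group of a rodent or other animal cancer study; inconclusive = only studies judged inadequate by the national testing program; inactive = tested in at least one study, none positive.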

Assay: DSSTox (CPDBAS) Carcinogenic Potency Database Summary SingleCellCall Results
Settings: animal chronic carcinogenicity bioassays, CPDB summary call
Text: The Carcinogenic Potency Database (CPDB) is a unique and widely used international resource of the results of over 6500 chronic, long-term animal cancer tests on over 1500 chemical substances. The CPDB provides easy access to the bioassay literature, with qualitative and quantitative analyses of both positive and negative experiments that have been published over the past 50 years in the general literature and by the National Cancer Institute/National Toxicology Program. The CPDB standardizes the diverse literature of cancer bioassays that vary widely in protocol, histopathological examination and nomenclature, and in the published author's choices of what information to provide in their papers. Results are reported in the CPDB for tests in rats, mice, hamsters, dogs, and nonhuman primates, and are based on the most positive result among all experiments for each sex-species. The DSSTox CPDBAS (all species) file incorporates data from the CPDB Summary Tables for the full list of over 1500 chemical substances tested in at least one species. A summary SingleCellCall, based on experimental bioassay results of one or more species, is provided for the entire DSSTox CPDBAS file (see Source URL).
An assignment of categorical carcinogenic activity based on minimal evidence for or against activity. […] Associated TD50 values and tumor site details for the relevant species/sex experiment supporting this overall CPDBAS SingleSiteCall are provided in the full CPDBAS DSSTox file (see Comment) and the corresponding CPDBAS Species Bioassay in PubChem.
For N[C@@H](CC(=O)O)C(=O)O, the outcome was “inactive; active”.
With Nc1ccc(-c2ccccc2)cc1O the outcome was “inactive”.
With O=C(N[C@H](CO)[C@H](O)c1ccc([N+](=O)[O-])cc1)C(Cl)Cl the outcome was “inactive”.
In the case of CO[C@@]12[C@H](COC(N)=O)C3=C(C(=O)C(C)=C(N)C3=O)N1C[C@@H]1N[C@@H]12, the outcome is reported as “active”.
In the case of Cc1ccc(C)c(N)c1, the outcome is reported as “active”.
With Oc1ccc(Cl)cc1Cc1ccccc1 the outcome was “active”.
For O=C(O[C@@H]1Cc2c(O)cc(O)cc2O[C@@H]1c1cc(O)c(O)c(O)c1)c1cc(O)c(O)c(O)c1, the outcome was “inactive”.
In the case of IC(I)I, the outcome is reported as “inactive”.
For O=NN(CCCC(F)(F)F)CCCC(F)(F)F, the outcome was “active”.
With C=CCc1ccc(O)c(OC)c1 the outcome was “inactive”.
In the case of C=CCc1ccc2c(c1)OCO2, the outcome is reported as “active”.
In the case of CNN, the outcome is reported as “active”.
With Cc1ccc(S(=O)(=O)OCCN(C)N=O)cc1 the outcome was “active”.
With CC(=O)Nc1ccc(-c2ccccc2)cc1 the outcome was “active”.
With NC(N)=S the outcome was “active; inactive”.
For ClCc1cccnc1, the outcome was “active”.
For ClCC(Br)CBr (stereo unspecified), the outcome was “active”.
With Cc1cc(C)c(N=Nc2c(O)c(S(=O)(=O)O)cc3cc(S(=O)(=O)O)ccc23)cc1C the outcome was “active; inactive”.
In the case of O=[N+]([O-])c1ccc2ncccc2c1, the outcome is reported as “inactive; active”.
In the case of C[C@H](CCC(=O)O)[C@H]1CC[C@H]2[C@@H]3CC[C@@H]4C[C@H](O)CC[C@]4(C)[C@H]3CC[C@]12C, the outcome is reported as “inactive”.
For C/C=C/C=O, the outcome was “active”.
For Nc1ccc(Cl)c(N)c1, the outcome was “active”.
In the case of CC(O)C(=O)O (stereo unspecified), the outcome is reported as “inactive”.
For O=[N+]([O-])c1ccc(-c2nc(NCCO)c3ccccc3n2)s1, the outcome was “active”.
With CN1C2CC[C@@H]1CC(NC(=O)c1cc(Cl)cc3c1OC(C)(C)C3)C2 (stereo partly specified) the outcome was “inactive”.
For S=C(S)NCCNC(=S)S, the outcome was “inactive”.
With CN(Cc1cnc2nc(N)nc(N)c2n1)c1ccc(C(=O)N[C@@H](CCC(=O)O)C(=O)O)cc1 the outcome was “inactive”.
In the case of FC(F)(Cl)Cl, the outcome is reported as “inactive”.
In the case of CNC(=S)N(C)C, the outcome is reported as “active”.
In the case of CCC(Cl)CCC(Cl)C(Cl)CC(Cl)C(Cl)C(Cl)CCl (stereo unspecified), the outcome is reported as “active”.
With OCC(O)CCl (stereo unspecified) the outcome was “inactive”.
With O=P(O)(OCC(Br)CBr)OCC(Br)CBr (stereo unspecified) the outcome was “active; inactive”.
With COc1ccc(C(=O)Nc2c(Cl)cncc2Cl)cc1OC1CCCC1 the outcome was “active”.
In the case of Cc1cccc(Nc2cc(Cl)nc(SCC(=O)O)n2)c1C, the outcome is reported as “active; inactive”.
In the case of CC(=O)CN(CCO)N=O, the outcome is reported as “active”.
For Oc1ccc(OCc2ccccc2)cc1, the outcome was “inactive; active”.
With C=CC(OCC)OCC the outcome was “inactive”.
For CC(C)(CO)CCCCCCC(C)(C)CO, the outcome was “inactive”.
In the case of CCNC(=S)NCC, the outcome is reported as “active”.
For Nc1ccc(O)c([N+](=O)[O-])c1, the outcome was “active”.
For C1N2CN3CN1CN(C2)C3, the outcome was “inactive; active”.
For O=[N+]([O-])c1ccc(Nc2ccc(Nc3ccccc3)c(S(=O)(=O)O)c2)c([N+](=O)[O-])c1, the outcome was “active; inactive”.
In the case of CCCC/C=N/N(C)C=O, the outcome is reported as “active”.
For NNc1nc(-c2ccc([N+](=O)[O-])o2)cs1, the outcome was “active; inactive”.
In the case of CCc1ccc(C(c2ccc(CC)cc2)C(Cl)Cl)cc1, the outcome is reported as “inactive”.
For OC[C@H]1O[C@@H]2O[C@H]3[C@H](O)[C@@H](O)[C@@H](O[C@H]4[C@H](O)[C@@H](O)[C@@H](O[C@H]5[C@H](O)[C@@H](O)[C@@H](O[C@H]6[C@H](O)[C@@H](O)[C@@H](O[C@H]7[C@H](O)[C@@H](O)[C@@H](O[C@H]8[C@H](O)[C@@H](O)[C@@H](O[C@H]1[C@H](O)[C@H]2O)O[C@@H]8CO)O[C@@H]7CO)O[C@@H]6CO)O[C@@H]5CO)O[C@@H]4CO)O[C@@H]3CO, the outcome was “inactive”.
In the case of C/C=C/Cl, the outcome is reported as “active”.
For O=C1c2ccccc2C(=O)c2c(O)c(O)cc(O)c21, the outcome was “active”.
For O=[N+]([O-])/C=C/c1ccccc1, the outcome was “inactive”.
For O.O.O.O.O=C([O-])CC(O)(CC(=O)[O-])C(=O)[O-].[Fe+3], the outcome was “inactive”.
For ClC(Cl)(Cl)c1ccccc1, the outcome was “active; inactive”.
With O=S(O)S(=O)(=O)O the outcome was “inactive”.
For Cc1ccc(N)cc1, the outcome was “active”.
In the case of CC1=CC(=O)NS(=O)(=O)O1, the outcome is reported as “inactive”.
With Cc1ccccc1S(N)(=O)=O the outcome was “active”.
With CC1=C[C@H]2[C@@]3(O)[C@H](C)[C@@H](O)[C@]4(O)[C@H]([C@@H]3C=C(CO)C[C@]2(O)C1=O)C4(C)C the outcome was “active”.
In the case of ClC#CCl, the outcome is reported as “active”.
For O=C1c2ccccc2C(=O)c2c(O)cccc21, the outcome was “active”.
With C1CNCCN1 the outcome was “inactive”.
For O=C(O)c1cc(N=Nc2ccc(S(=O)(=O)Nc3ccccn3)cc2)ccc1O, the outcome was “active”.
In the case of CC(=O)Nc1cccc2c1-c1ccccc1C2, the outcome is reported as “inactive”.
In the case of CC(C)(C)c1cc([N+](=O)[O-])cc([N+](=O)[O-])c1OS(C)(=O)=O, the outcome is reported as “inactive”.
For N[C@@H](CCC(=O)NNc1ccc(C(=O)O)cc1)C(=O)O, the outcome was “active; inactive”.
For CCCCCCCC(=O)OCC(COC(=O)CCCCCCC)OC(=O)CCCCCCC, the outcome was “active”.
For CC(C)OC(=O)Nc1cccc(Cl)c1, the outcome was “inactive; active”.
With CNc1ncnc2c1ncn2[C@@H]1O[C@H](CO)[C@@H](O)[C@H]1O the outcome was “inactive; active”.
With CNCCc1ccc(OC(=O)C(C)C)c(OC(=O)C(C)C)c1 the outcome was “inactive”.
With CCCC[N+](=O)[O-] the outcome was “inactive”.
For O=C(O)c1ccc(O)c(O)c1, the outcome was “inactive”.
In the case of CN(N=O)C(=O)Nc1nc2ccccc2s1, the outcome is reported as “active”.
For CNC(=O)c1c(N(C)N=O)ncn1C, the outcome was “active”.
With O=Nc1ccc(NO)cc1 the outcome was “active”.
In the case of COc1cc(OC)c2c3c(c(=O)oc2c1)CCC3, the outcome is reported as “inactive”.
For CC/C(=C(/CC)c1ccc(O)cc1)c1ccc(O)cc1, the outcome was “active”.
With Cc1cc(OC(=O)N(C)C)n(C(C)C)n1 the outcome was “inactive; active”.
In the case of OC[C@@H](O)[C@@H](O)[C@H](O)[C@H](O)CO, the outcome is reported as “inactive”.
For CC(=O)c1ccc(S(=O)(=O)NC(=O)NC2CCCCC2)cc1, the outcome was “inactive”.
For Cc1ccc(/C(=C\CN2CCCC2)c2ccccn2)cc1, the outcome was “inactive”.
With CCN=[N+]([O-])CC the outcome was “active”.
With O=NN1CCCN(N=O)CC1 the outcome was “active”.
For CN(CCCC(=O)O)N=O, the outcome was “active”.
In the case of Brc1cc(-c2ccc(Br)c(Br)c2Br)cc(Br)c1Br, the outcome is reported as “inactive; active”.
For O=P1(N(CCCl)CCCl)NCCCO1 (stereo unspecified), the outcome was “active”.
In the case of c1ccncc1, the outcome is reported as “active”.
For CC1=C(/C=C/C(C)=C/C=C/C(C)=C/C=C/C=C(C)/C=C/C=C(C)/C=C/C2=C(C)CCCC2(C)C)C(C)(C)CCC1, the outcome was “inactive”.
For O=C1C=CC(=O)C=C1, the outcome was “active”.
For CC(C)NCC(O)COc1ccc(CC(N)=O)cc1 (stereo unspecified), the outcome was “inactive; active”.
With NC(=O)CI the outcome was “inactive; active”.
For CN(C)N=Nc1ccccc1, the outcome was “active”.
For O=C(O)c1ccccc1-c1c2cc(I)c(=O)c(I)c-2oc2c(I)c(O)c(I)cc12, the outcome was “inactive”.
In the case of CCN(CC)C(=S)[S-].CCN(CC)C(=S)[S-].[Cd+2], the outcome is reported as “inactive”.
For CBr, the outcome was “inactive; active”.
In the case of Nc1cc(Cl)c(-c2cc(Cl)c(N)cc2Cl)cc1Cl, the outcome is reported as “inactive”.
In the case of CCN(Cc1cccc(S(=O)(=O)O)c1)c1ccc(C(=C2C=CC(=[N+](CC)Cc3cccc(S(=O)(=O)[O-])c3)C=C2)c2ccccc2)cc1, the outcome is reported as “active”.
In the case of CCNNC(=O)[C@@H]1[C@H](c2cc(OC)c(OC)c(OC)c2)c2cc3c(cc2[C@H](O)[C@H]1CO)OCO3, the outcome is reported as “inactive”.
In the case of Cn1c(N)nc2ncc(-c3ccccc3)cc21, the outcome is reported as “active”.
In the case of Nc1ccc(NCCO)c([N+](=O)[O-])c1, the outcome is reported as “inactive”.
With C[C@@H]1O[C@@H](OC[C@H]2O[C@@H](Oc3c(-c4ccc(O)c(O)c4)oc4cc(O)cc(O)c4c3=O)[C@H](O)[C@@H](O)[C@@H]2O)[C@H](O)[C@H](O)[C@H]1O the outcome was “inactive”.
With ClC1=C(Cl)C2(Cl)C3C(Cl)C=CC3C1(Cl)C2(Cl)Cl (stereo unspecified) the outcome was “active”.
In the case of CN(N=O)C(=O)NCCC[C@H](N)C(=O)O, the outcome is reported as “active”.
For C=CC=C, the outcome was “active; inactive”.
With CCS(=O)(=O)c1ccc(S(N)(=O)=O)c2ccccc12 the outcome was “active”.
For [Na+], the outcome was “inactive”.
With CCN(CC)C(=S)S[Se](SC(=S)N(CC)CC)(SC(=S)N(CC)CC)SC(=S)N(CC)CC the outcome was “active; inactive”.
With C=Cc1ccc(C)cc1 the outcome was “inactive”.
In the case of CC1=NN(c2ccccc2)C(=O)C1, the outcome is reported as “inactive”.
For Nc1ccc(Nc2ccccc2)cc1, the outcome was “inactive”.
For Oc1ccccc1, the outcome was “inactive”.
With CC(=O)OCc1ccccc1 the outcome was “active; inactive”.
For NC1=NCN([C@@H]2O[C@H](CO)[C@@H](O)[C@H]2O)C(=O)N1, the outcome was “inactive; active”.
For CC1CN(N=O)CC(C)N1N=O (stereo unspecified), the outcome was “active”.
In the case of C=CCOc1ccccc1OCC(O)CNC(C)C (stereo unspecified), the outcome is reported as “inactive”.
In the case of C=CCN(CC(C)O)N=O (stereo unspecified), the outcome is reported as “active”.
For [K+], the outcome was “active; inactive”.
In the case of O=C(Oc1ccccc1)Oc1ccccc1, the outcome is reported as “inactive”.
With ClCOCCOCCl the outcome was “active”.
